This is an account of results in ChEMBL document CHEMBL2157945, “Identification of pyrimidine derivatives as hSMG-1 inhibitors” (Bioorg Med Chem Lett, 2012).

Activity calls are given as the source filed them. No cut-off for these calls is given here. Bounds are passed on as bounds.

Experiment [1] deals with T1, Serine/threonine-protein kinase SMG1 (Homo sapiens, UniProt Q96Q15). Nature of the experiment: Inhibition of human recombinant SMG1 expressed in HEK293 cells using GST-tagged p53 as substrate after 1 hr by DELFIA assay.
T1 sequence (Q96Q15 whole entry): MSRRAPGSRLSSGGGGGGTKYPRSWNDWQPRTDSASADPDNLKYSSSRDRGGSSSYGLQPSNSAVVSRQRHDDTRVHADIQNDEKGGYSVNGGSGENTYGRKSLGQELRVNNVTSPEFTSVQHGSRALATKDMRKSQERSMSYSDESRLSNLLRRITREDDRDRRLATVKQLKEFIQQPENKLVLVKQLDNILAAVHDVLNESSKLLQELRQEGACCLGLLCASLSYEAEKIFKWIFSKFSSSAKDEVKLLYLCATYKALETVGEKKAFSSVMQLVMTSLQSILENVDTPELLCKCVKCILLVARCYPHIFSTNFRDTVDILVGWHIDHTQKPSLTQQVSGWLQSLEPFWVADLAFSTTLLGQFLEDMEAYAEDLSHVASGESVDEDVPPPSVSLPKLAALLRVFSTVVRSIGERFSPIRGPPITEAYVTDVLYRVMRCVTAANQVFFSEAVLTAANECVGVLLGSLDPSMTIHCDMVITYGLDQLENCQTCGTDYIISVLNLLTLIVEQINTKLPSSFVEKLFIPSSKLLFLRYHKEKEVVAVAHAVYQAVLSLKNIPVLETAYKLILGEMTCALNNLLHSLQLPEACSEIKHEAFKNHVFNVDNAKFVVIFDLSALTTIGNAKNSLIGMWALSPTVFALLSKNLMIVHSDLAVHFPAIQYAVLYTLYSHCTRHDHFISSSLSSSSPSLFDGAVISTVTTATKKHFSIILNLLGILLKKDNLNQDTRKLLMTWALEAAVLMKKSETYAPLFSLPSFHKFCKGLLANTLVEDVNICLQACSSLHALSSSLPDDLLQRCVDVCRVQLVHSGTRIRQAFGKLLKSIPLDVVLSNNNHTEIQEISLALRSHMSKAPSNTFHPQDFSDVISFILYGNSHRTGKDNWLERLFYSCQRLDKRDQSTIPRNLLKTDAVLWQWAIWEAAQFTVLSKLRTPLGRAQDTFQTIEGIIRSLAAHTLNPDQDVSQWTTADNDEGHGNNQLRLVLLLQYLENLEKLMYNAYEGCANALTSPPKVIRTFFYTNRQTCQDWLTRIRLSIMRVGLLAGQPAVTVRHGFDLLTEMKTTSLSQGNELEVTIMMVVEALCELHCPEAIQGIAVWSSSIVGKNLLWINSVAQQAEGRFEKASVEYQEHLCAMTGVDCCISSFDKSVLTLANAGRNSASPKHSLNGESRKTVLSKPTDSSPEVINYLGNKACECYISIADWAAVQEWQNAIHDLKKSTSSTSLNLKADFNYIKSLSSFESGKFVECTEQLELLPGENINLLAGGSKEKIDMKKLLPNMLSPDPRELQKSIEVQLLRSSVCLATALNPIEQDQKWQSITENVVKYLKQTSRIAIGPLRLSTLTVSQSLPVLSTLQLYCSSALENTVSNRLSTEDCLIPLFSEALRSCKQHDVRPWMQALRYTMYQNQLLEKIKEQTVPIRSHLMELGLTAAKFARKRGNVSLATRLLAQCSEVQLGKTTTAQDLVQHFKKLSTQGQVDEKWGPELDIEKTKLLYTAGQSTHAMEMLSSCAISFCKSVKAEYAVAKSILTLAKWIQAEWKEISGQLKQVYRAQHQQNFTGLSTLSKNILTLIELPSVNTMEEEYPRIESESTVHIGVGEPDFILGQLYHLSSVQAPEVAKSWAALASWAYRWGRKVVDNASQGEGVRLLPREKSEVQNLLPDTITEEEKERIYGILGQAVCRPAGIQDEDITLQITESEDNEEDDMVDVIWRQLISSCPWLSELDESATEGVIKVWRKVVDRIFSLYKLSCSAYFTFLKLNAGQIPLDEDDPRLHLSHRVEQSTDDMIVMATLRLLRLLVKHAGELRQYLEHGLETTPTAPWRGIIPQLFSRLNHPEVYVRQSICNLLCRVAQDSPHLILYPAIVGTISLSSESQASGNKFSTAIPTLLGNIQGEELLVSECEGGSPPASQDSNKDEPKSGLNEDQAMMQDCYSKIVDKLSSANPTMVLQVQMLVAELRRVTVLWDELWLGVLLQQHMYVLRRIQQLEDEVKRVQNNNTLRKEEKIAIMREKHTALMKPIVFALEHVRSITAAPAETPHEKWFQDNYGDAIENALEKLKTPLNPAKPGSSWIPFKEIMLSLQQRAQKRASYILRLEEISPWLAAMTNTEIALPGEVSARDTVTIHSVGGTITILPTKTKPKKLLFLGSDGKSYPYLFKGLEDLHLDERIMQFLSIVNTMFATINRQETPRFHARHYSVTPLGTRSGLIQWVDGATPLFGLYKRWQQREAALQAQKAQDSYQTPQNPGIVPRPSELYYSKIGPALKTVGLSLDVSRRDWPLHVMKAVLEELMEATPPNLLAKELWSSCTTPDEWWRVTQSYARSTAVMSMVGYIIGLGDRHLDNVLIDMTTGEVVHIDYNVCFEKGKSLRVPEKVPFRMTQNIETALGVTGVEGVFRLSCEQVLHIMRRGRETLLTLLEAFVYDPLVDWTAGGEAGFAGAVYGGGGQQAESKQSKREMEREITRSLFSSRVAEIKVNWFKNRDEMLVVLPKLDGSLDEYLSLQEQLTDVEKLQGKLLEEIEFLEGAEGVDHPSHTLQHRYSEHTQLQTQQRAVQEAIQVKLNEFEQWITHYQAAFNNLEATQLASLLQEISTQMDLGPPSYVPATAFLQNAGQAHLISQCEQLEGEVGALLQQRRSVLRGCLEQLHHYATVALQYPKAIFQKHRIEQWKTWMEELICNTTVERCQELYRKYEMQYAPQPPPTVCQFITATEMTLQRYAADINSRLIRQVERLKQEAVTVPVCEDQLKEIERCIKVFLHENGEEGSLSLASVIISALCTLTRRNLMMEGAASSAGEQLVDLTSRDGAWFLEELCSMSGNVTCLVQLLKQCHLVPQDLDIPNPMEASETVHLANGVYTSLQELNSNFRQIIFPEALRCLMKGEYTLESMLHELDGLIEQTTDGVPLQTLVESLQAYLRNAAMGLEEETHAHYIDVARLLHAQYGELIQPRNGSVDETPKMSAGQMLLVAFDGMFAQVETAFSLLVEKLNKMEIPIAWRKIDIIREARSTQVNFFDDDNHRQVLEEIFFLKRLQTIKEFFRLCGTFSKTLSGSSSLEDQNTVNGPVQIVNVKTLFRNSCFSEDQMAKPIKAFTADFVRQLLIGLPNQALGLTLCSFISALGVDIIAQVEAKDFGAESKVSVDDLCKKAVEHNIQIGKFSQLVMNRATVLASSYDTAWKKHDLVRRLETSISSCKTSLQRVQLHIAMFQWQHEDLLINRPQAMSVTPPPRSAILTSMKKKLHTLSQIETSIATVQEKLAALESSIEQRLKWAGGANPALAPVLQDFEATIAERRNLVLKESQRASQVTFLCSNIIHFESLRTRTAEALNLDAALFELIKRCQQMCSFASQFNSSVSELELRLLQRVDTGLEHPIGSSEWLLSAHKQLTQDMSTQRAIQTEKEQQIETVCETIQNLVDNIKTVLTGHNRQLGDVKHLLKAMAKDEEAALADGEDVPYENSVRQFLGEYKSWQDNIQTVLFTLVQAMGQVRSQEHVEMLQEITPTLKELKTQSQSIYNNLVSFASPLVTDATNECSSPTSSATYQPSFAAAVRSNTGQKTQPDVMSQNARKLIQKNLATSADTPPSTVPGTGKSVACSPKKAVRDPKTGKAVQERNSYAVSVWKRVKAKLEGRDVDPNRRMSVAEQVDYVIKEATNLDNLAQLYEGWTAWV
Experiment [2] has as its target T2, Serine/threonine-protein kinase mTOR (Homo sapiens, UniProt P42345). Nature of the experiment: Inhibition of mTOR.
The species entered for another experiment is Homo sapiens. Nature of the experiment: Selectivity ratio of IC50 for mTOR to IC50 for human recombinant SMG1.
Experiment [3] has as its target Cyclin-dependent kinase 1 (Homo sapiens, UniProt P06493). Nature of the experiment: Inhibition of CDK1.
For experiment [4], the target named is Cyclin-dependent kinase 2 (Homo sapiens, UniProt P24941). Nature of the experiment: Inhibition of CDK2.
In experiment [5] the target is Phosphatidylinositol 4,5-bisphosphate 3-kinase catalytic subunit alpha isoform (Homo sapiens, UniProt P42336). Nature of the experiment: Inhibition of PI3Kalpha using diC8-tagged PIP2 as substrate after 30 to 60 mins by TAMRA-based fluorescence polarization assay. On the technique in general: In fluorescence polarisation assays a small probe gives low polarisation when free and higher when bound to something large.
Chain of Phosphatidylinositol 4,5-bisphosphate 3-kinase catalytic subunit alpha isoform (P42336 whole entry, canonical isoform): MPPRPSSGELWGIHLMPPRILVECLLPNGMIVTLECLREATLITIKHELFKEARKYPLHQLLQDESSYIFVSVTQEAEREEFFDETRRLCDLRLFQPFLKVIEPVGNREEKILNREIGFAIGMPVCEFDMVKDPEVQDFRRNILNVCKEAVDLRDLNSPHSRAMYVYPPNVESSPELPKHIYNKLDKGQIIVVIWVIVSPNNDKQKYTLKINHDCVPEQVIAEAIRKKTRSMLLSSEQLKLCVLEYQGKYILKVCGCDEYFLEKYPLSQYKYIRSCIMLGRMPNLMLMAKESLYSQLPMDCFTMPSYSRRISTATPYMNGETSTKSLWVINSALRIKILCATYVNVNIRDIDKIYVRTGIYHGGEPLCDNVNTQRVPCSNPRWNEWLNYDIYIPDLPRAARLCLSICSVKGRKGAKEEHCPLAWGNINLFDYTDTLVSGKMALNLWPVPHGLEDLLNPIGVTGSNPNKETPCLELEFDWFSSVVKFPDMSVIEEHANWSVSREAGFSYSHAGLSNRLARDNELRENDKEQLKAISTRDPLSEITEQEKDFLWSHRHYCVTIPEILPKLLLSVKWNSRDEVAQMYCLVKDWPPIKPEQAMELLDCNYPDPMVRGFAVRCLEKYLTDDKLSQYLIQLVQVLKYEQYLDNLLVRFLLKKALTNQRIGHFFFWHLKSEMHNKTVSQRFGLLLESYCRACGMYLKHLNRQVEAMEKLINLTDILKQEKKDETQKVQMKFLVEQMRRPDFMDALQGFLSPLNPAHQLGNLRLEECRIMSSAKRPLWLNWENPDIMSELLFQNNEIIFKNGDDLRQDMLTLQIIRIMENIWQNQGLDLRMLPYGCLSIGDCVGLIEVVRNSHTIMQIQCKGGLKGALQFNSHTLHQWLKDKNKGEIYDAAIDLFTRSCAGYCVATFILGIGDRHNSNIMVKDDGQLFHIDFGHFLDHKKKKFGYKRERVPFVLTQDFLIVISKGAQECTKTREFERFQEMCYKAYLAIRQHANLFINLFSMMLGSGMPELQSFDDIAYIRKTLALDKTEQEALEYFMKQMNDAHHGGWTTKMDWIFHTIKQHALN

The target of experiment [6] is Phosphatidylinositol 4,5-bisphosphate 3-kinase catalytic subunit gamma isoform (Homo sapiens, UniProt P48736). Nature of the experiment: Inhibition of PI3Kgamma using diC8-tagged PIP2 as substrate after 30 to 60 mins by TAMRA-based fluorescence polarization assay.
Experiment [7] has as its target Glycogen synthase kinase-3 alpha (Homo sapiens, UniProt P49840). Nature of the experiment: Inhibition of GSK3alpha.
For experiment [8], the target named is Glycogen synthase kinase-3 beta (Homo sapiens, UniProt P49841). Nature of the experiment: Inhibition of GSK3beta.
For experiment [9], the target named is T2, Serine/threonine-protein kinase mTOR. Nature of the experiment: Inhibition of mTOR in human MDA-MB-361 cells assessed as inhibition of p70S6K phosphorylation at 0.3 to 3 uM after 6 hrs by immunostaining analysis. In kind it is cell-based.
In the next experiment the test system is MDA-MB-361. Nature of the experiment: Inhibition of PI3K in human MDA-MB-361 cells assessed as inhibition of AKT phosphorylation at 0.3 to 3 uM after 6 hrs by immunostaining analysis. In kind it is cell-based.
In experiment [10] the target is T1, Serine/threonine-protein kinase SMG1. Nature of the experiment: Inhibition of SMG1 in human MDA-MB-361 cells assessed as inhibition of UPF1 phosphorylation at 1 uM after 6 hrs by immunostaining analysis. In kind it is cell-based.
Experiment [11] shares this target. Nature of the experiment: Inhibition of SMG1 in human MDA-MB-361 cells assessed as inhibition of UPF1 phosphorylation at 0.3 uM after 6 hrs by immunostaining analysis. In kind it is cell-based.
Another experiment relates to MDA-MB-468. Nature of the experiment: Cytotoxicity against human MDA-MB-468 cells. In kind it is functional, cell-based.
For experiment [12], the target named is T1, Serine/threonine-protein kinase SMG1. Nature of the experiment: Inhibition of SMG1 in human MDA-MB-361 cells assessed as inhibition of UPF1 phosphorylation up to 3 uM after 6 hrs by immunostaining analysis. In kind it is cell-based.
Experiment [13] shares this target. Nature of the experiment: Inhibition of SMG1 in human MDA-MB-361 cells assessed as inhibition of UPF1 phosphorylation after 6 hrs by immunostaining analysis. In kind it is cell-based.

Chain of Cyclin-dependent kinase 1 (P06493 whole entry): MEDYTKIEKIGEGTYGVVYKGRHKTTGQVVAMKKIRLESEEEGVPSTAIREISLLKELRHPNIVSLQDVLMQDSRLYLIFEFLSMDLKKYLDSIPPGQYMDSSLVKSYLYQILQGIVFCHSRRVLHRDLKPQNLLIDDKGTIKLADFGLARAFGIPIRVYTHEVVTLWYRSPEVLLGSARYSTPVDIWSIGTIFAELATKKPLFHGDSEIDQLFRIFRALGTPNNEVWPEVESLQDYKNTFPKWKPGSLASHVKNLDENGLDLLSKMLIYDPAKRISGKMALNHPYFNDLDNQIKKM

Take `CNC(=O)Nc1ccc(-c2cc(-c3ccnc(Nc4cccc(S(=O)(=O)NC)c4)n3)ccn2)cc1`: the half-maximal inhibitory concentration (IC50) (as a rule, the point on the concentration scale where inhibition reaches its midpoint) in [1] turned out to be 0.1 nM; in [2], 15 nM; in [3] it was 210 nM; in [4], 100 nM; in experiment [5] it was 80 nM; in experiment [6], 82 nM. Further, the Ratio IC50 in the experiment filed under Homo sapiens was above 150.
As for `CCN(CC)c1cc(-c2ccnc(Nc3cccc(S(N)(=O)=O)c3)n2)ccn1`, the IC50 is 3 nM in experiment [1], 110 nM in experiment [2], 7.4 nM in [3] and below 5.2 nM in experiment [4]. For the same molecule, the Ratio IC50 in the experiment filed under Homo sapiens is 37.
In the case of `OCCCNc1cc(-c2ccnc(Nc3cccc(Cl)c3)n2)ccn1`, the IC50 in experiment [1] was 110 nM; in [2], 800 nM; in experiment [3], below 5.2 nM; in experiment [4], below 5.2 nM. In the experiment listed under Homo sapiens, the Ratio IC50 was determined as 8.
On to `c1ccc(Nc2nccc(-c3ccnc(N4CCOCC4)c3)n2)cc1`, for which the IC50 is 1500 nM in experiment [1] and above 4000 nM in experiment [2]. The Ratio IC50 in the experiment listed under Homo sapiens was above 3.
For `CN1CCN(c2cc(-c3ccnc(Nc4cccc(S(N)(=O)=O)c4)n3)ccn2)CC1`, in that order: 310 nM, 3300 nM and 10.
With `CCN(CC)S(=O)(=O)c1cc(Nc2nccc(-c3ccnc(-c4ccc(NC(=O)NC)cc4)c3)n2)ccc1Cl`, the IC50 was determined as 0.11 nM in [1]; 50 nM in experiment [2]; 32000 nM in experiment [3]; 7100 nM in experiment [4]; 260 nM in [7]; 330 nM in experiment [8]. In addition, the IC50 in experiment [5] was 92 nM; in experiment [6] it was 60 nM; in the experiment on MDA-MB-468, 75 nM. Further, the Ratio IC50 in the experiment filed under Homo sapiens was determined as 455. For the same molecule, the inhibition entry (in experiment [9]; with MDA-MB-361) was “inactive” in each case. For the same molecule, the inhibition result in experiment [10] and in experiment [11] was “Active” in each case.
With `CCN(CC)S(=O)(=O)c1cc(Nc2nccc(-c3ccnc(-c4ccc(NC(=O)NC)cc4)c3)n2)ccc1C`, the IC50 in [1] came out at 0.2 nM; in experiment [2] it was 88 nM; in experiment [3] it was 14000 nM; in [4], 3000 nM; in experiment [5], 130 nM; in [6] it was 93 nM. Besides, the Ratio IC50 in the experiment listed under Homo sapiens came to 440.
With `NS(=O)(=O)c1ccc(Nc2nccc(-c3cccc(C(=O)N4CCCCC4)c3)n2)cc1`, the IC50 in [1] turned out to be 450 nM; in experiment [2], 890 nM.
As for `NS(=O)(=O)c1ccc(Nc2nccc(-c3ccnc(N4CCOCC4)c3)n2)cc1`, the half-inhibitory concentration (IC50) in experiment [1] is 370 nM; in experiment [2] it was above 20000 nM. Besides, the Ratio IC50 in the experiment filed under Homo sapiens was above 54. Moreover, the inhibition entry in experiment [12] was “inactive”.
In the case of `CNC(=O)Nc1ccc(-c2cc(-c3ccnc(Nc4ccc(Cl)c(S(=O)(=O)NC)c4)n3)ccn2)cc1`, the IC50 in experiment [1] was below 0.05 nM; in [2] it was 7.7 nM; in [3] it was 320 nM; in [4] it was 140 nM. For the same molecule, the Ratio IC50 in the experiment filed under Homo sapiens was above 154.
With `NS(=O)(=O)c1cccc(Nc2nccc(-c3ccnc(N4C5CCC4COC5)c3)n2)c1`, the IC50 turned out to be 25 nM in experiment [1], 3200 nM in [2], 100 nM in experiment [3] and 31 nM in experiment [4]. Also, the Ratio IC50 in the experiment filed under Homo sapiens is 130.
Take `Clc1ccc(Nc2nccc(-c3ccnc(N4CCOCC4)c3)n2)cc1`: the IC50 in experiment [1] was 1000 nM; in experiment [2], above 20000 nM. Besides, the Ratio IC50 in the experiment filed under Homo sapiens is above 19.
Regarding `CNC(=O)Nc1ccc(-c2cc(-c3ccnc(Nc4ccc(C)c(S(=O)(=O)NC)c4)n3)ccn2)cc1`, the IC50 in experiment [1] is below 0.05 nM; in [2], 18 nM; in [3], 230 nM; in [4], 110 nM; in experiment [5], 43 nM; in [6] it was 63 nM. Also, the Ratio IC50 in the experiment filed under Homo sapiens is above 350.
`CNC(=O)Nc1ccc(-c2cc(-c3ccnc(Nc4cccc(S(N)(=O)=O)c4)n3)ccn2)cc1`: the IC50 in experiment [1] is below 0.05 nM; in [2], 18 nM; in experiment [3], 62 nM; in experiment [4] it was 23 nM; in experiment [5] it was 44 nM; in experiment [6] it was 91 nM. For the same molecule, in the experiment filed under Homo sapiens, the Ratio IC50 was above 360.
`N#Cc1cccc(Nc2nccc(-c3ccnc(N4CCOCC4)c3)n2)c1`: the IC50 was 80 nM in experiment [1] and above 4000 nM in experiment [2]. Besides, in the experiment listed under Homo sapiens, the Ratio IC50 was above 50.
Take `NS(=O)(=O)c1cccc(Nc2nccc(-c3ccnc(N4CCOCC4)c3)n2)c1`: the IC50 was found to be 11 nM in [1], 610 nM in experiment [2], 55 nM in [3] and 19 nM in experiment [4]. Further, the Ratio IC50 in the experiment listed under Homo sapiens turned out to be 56.
On to `CNC(=O)Nc1ccc(-c2cc(-c3ccnc(Nc4ccc(C)c(S(=O)(=O)N(C)C)c4)n3)ccn2)cc1`, for which the IC50 in experiment [1] was below 0.05 nM; in [2], 45 nM; in [3] it was 1200 nM; in experiment [4], 460 nM; in experiment [5], 61 nM; in experiment [6] it was 72 nM. Moreover, the Ratio IC50 in the experiment listed under Homo sapiens is above 900.
Take `NS(=O)(=O)c1cccc(Nc2nccc(-c3ccnc(NCCCO)c3)n2)c1`: the IC50 in experiment [1] came to 22 nM; in experiment [2], 320 nM; in experiment [3], 12 nM; in experiment [4], 6.7 nM. In the experiment filed under Homo sapiens, the Ratio IC50 is 15.
Take `NS(=O)(=O)c1cccc(Nc2nccc(-c3ccnc(N4CC5CCC(C4)O5)c3)n2)c1`: the IC50 came out at 6 nM in [1], 200 nM in experiment [2], 48 nM in [3] and 21 nM in [4]. For the same molecule, in the experiment filed under Homo sapiens, the Ratio IC50 was found to be 33.
In the case of `Cc1cccc(Nc2nccc(-c3ccnc(N4CCOCC4)c3)n2)c1`, the IC50 is 330 nM in [1], above 20000 nM in experiment [2], 100 nM in experiment [3] and 46 nM in [4]. Moreover, the Ratio IC50 in the experiment listed under Homo sapiens was above 61.
For `Clc1cccc(Nc2nccc(-c3ccnc(N4CCOCC4)c3)n2)c1`, in that order: 280 nM, above 20000 nM, 35 nM, 8.9 nM and above 71.
`CNC(=O)Nc1ccc(-c2cc(-c3ccnc(Nc4ccc(Cl)c(S(=O)(=O)N(C)C)c4)n3)ccn2)cc1`: the IC50 in experiment [1] was below 0.05 nM; in experiment [2], 12 nM; in [3] it was 1400 nM; in [4], 520 nM; in experiment [5], 33 nM; in [6], 54 nM. For the same molecule, in the experiment listed under Homo sapiens, the Ratio IC50 is above 244.
As for `FC(F)(F)c1cccc(Nc2nccc(-c3ccnc(N4CCOCC4)c3)n2)c1`, the results for the IC50 in experiment [1] and in experiment [2] were 250 nM and 1700 nM, respectively. Moreover, the Ratio IC50 in the experiment listed under Homo sapiens came to 7.
For `CNC(=O)Nc1ccc(-c2cc(-c3ccnc(Nc4ccc(C)c(S(N)(=O)=O)c4)n3)ccn2)cc1`, in that order: below 0.05 nM, 16 nM and above 320.
Regarding `CCN(CC)S(=O)(=O)c1cccc(Nc2nccc(-c3ccnc(-c4ccc(NC(=O)NC)cc4)c3)n2)c1`, the IC50 in [1] was 0.2 nM; in experiment [2], 25 nM; in experiment [3], 3200 nM; in [4] it was 560 nM; in experiment [5], 78 nM; in experiment [6], 59 nM. In the experiment listed under Homo sapiens, the Ratio IC50 came to 125.
For `COc1cccc(Nc2nccc(-c3ccnc(N4CCOCC4)c3)n2)c1`, the figures for the IC50 in [1] and in experiment [2] were 1100 nM and 4600 nM, respectively. Also, the Ratio IC50 in the experiment listed under Homo sapiens was 4.
Regarding `NS(=O)(=O)c1cccc(Nc2nccc(-c3ccnc(N4CCCCC4)c3)n2)c1`, the IC50 in experiment [1] was determined as 3 nM; in [2] it was 140 nM; in experiment [3], 36 nM; in experiment [4], 16 nM. Besides, in the experiment listed under Homo sapiens, the Ratio IC50 amounted to 47. Also, the inhibition result in [13] was “Dose-dependent effect”. In addition, the inhibition entry (in experiment [9]; in the experiment on MDA-MB-361) was “Active” in each case.
